≈ marks a conversion by molar mass, not a printed value. Calls of active or inactive are those of the source.
Key:
[1] = Glutathione peroxidase like activity of compound assessed as fold increase by measuring reduction in NADPH level at 10 uM by microplate reader assay relative to SPI-1005; type: ADME
[2] = Glutathione peroxidase like activity of compound assessed as fold increase by measuring reduction in NADPH level at 100 uM by microplate reader assay relative to SPI-1005; type: ADME
Mus musculus [3] = species on record: Mus musculus; assay: Inhibition of cisplatin induced hair loss in neonatal C57BL/6 mouse cochlear explants assessed as reduction in cochlear hair cells loss in base turns pretreated with compound for 2 hrs followed by cisplatin addition and measured after 24 hrs post cisplatin treatment; type: functional; settings: Cochlea, time 26.0 hrs
Mus musculus [4] = species on record: Mus musculus; assay: Inhibition of cisplatin induced hair loss in neonatal C57BL/6 mouse cochlear explants assessed as reduction in cochlear hair cells loss in apex turns pretreated with compound for 2 hrs followed by cisplatin addition and measured after 24 hrs post cisplatin treatment; type: functional; settings: Cochlea, time 26.0 hrs
Mus musculus [5] = species on record: Mus musculus; assay: Inhibition of cisplatin induced hair loss in neonatal C57BL/6 mouse cochlear explants assessed as reduction in cochlear hair cells loss in middle turns pretreated with compound for 2 hrs followed by cisplatin addition and measured after 24 hrs post cisplatin treatment; type: functional; settings: Cochlea, time 26.0 hrs
Mus musculus [6] = assay: Protection against cisplatin induced oxidative stress in C57BL/6 mouse assessed as reduction in MDA level at 80 mg/kg, po administered daily for one week with simultaneous cisplatin addition on day 3 and 7 and measured after 1 week post last cisplatin treatment by ELISA; type: functional, organism-based; settings: time 2.0 weeks
Mus musculus [7] = assay: Protection against cisplatin induced oxidative stress in C57BL/6 mouse assessed as increase in SOD level at 80 mg/kg, po administered daily for one week with simultaneous cisplatin addition on day 3 and 7 and measured after 1 week post last cisplatin treatment by ELISA; type: functional, organism-based; settings: time 2.0 weeks
Mus musculus [8] = assay: Prevention of cisplatin induced hearing loss in C57BL/6 mouse assessed as reduction in ABR threshold increase at 80 mg/kg, po administered daily for one week with simultaneous cisplatin addition on day 3 and 7 and measured after 1 week post last cisplatin treatment; type: functional, organism-based; settings: time 2.0 weeks
Mus musculus [9] = assay: Protection against cisplatin induced oxidative stress in C57BL/6 mouse assessed as reduction in IL-6 level at 80 mg/kg, po administered daily for one week with simultaneous cisplatin addition on day 3 and 7 and measured after 1 week post last cisplatin treatment by ELISA; type: functional, organism-based; settings: time 2.0 weeks
Mus musculus [10] = species on record: Mus musculus; assay: Inhibition of cisplatin induced ferroptosis in neonatal C57BL/6 mouse cochlear explants assessed as reduction in mitochondrial iron accumulation at 100 uM by Mito-FerroGreen staining based confocal microscopy analysis; type: functional, organism-based; settings: Cochlea
Mus musculus [11] = assay: Prevention of cisplatin induced hair loss in C57BL/6 mouse at 80 mg/kg, po administered daily for one week with simultaneous cisplatin addition on day 3 and 7 and measured after 1 week post last cisplatin treatment by myosin 7a-staining based assay; type: functional, organism-based; settings: time 2.0 weeks
Mus musculus [12] = assay: Protection against cisplatin induced oxidative stress in C57BL/6 mouse assessed as reduction in TNF-alpha level at 80 mg/kg, po administered daily for one week with simultaneous cisplatin addition on day 3 and 7 and measured after 1 week post last cisplatin treatment by ELISA; type: functional, organism-based; settings: time 2.0 weeks
[13] = Solubility of compound in water by liquid chromatography method; type: physicochemical
Mus musculus [14] = species on record: Mus musculus; assay: Inhibition of cisplatin induced apoptosis in neonatal C57BL/6 mouse cochlear explants assessed as reduction in cleaved caspase 3 positive hair cells in middle turn of cochlea at 100 uM by parvalbumin staining based assay; type: functional
Tu 686 = assay: Effect on cisplatin induced antitumor activity in human Tu 686 cells by CCK8 assay; type: functional, cell-based
Mus musculus [15] = species on record: Mus musculus; assay: Inhibition of cisplatin induced apoptosis in neonatal C57BL/6 mouse cochlear explants assessed as reduction in cleaved caspase 3 positive hair cells in basal turn of cochlea at 100 uM by parvalbumin staining based assay; type: functional
Mus musculus [16] = species on record: Mus musculus; assay: Inhibition of cisplatin induced oxidative stress in neonatal C57BL/6 mouse cochlear explants at 100 uM by MitoSOX Red staining based confocal fluorescence microscope analysis; type: functional, organism-based; settings: Cochlea
HeLa = assay: Effect on cisplatin induced antitumor activity in human HeLa cells by CCK8 assay; type: functional, cell-based
Mus musculus [17] = species on record: Mus musculus; assay: Inhibition of cisplatin induced apoptosis in neonatal C57BL/6 mouse cochlear explants assessed as reduction in cleaved caspase 3 positive hair cells in apex turn of cochlea at 100 uM by parvalbumin staining based assay; type: functional
6-10B = assay: Effect on cisplatin induced antitumor activity in human 6-10B cells by CCK8 assay; type: functional, cell-based

SMILES	fold change (FC) [1]	fold change (FC) [2]	further results
COc1ccc2c(=O)n(-c3ccccc3)[se]c2c1	0.2	0.5	–
O=c1c2cccc(Br)c2[se]n1-c1ccccn1	9.1	4.7	–
O=c1c2cccc([N+](=O)[O-])c2[se]n1-c1ccccc1	7.2	3.3	–
COc1cccc(-n2[se]c3ccccc3c2=O)c1	0.7	1	–
O=c1c2cccc(Br)c2[se]n1-c1cccnc1	9.8	3.5	inhibition (Mus musculus [3]): Active; inhibition (Mus musculus [4]): Active; inhibition (Mus musculus [5]): Active
COc1ccccc1-n1[se]c2ccccc2c1=O	0.9	1.1	–
O=c1c2ccccc2[se]n1-c1ccccc1	–	–	inhibition (Mus musculus [3]): Active; Activity (Mus musculus [6]): Active; Activity (Mus musculus [7]): Active; Activity (Mus musculus [8]): Active; Activity (Mus musculus [9]): Active; inhibition (Mus musculus [4]): Active; inhibition (Mus musculus [10]): Active; inhibition (Mus musculus [5]): Active; Activity (Mus musculus [11]): Active; Activity (Mus musculus [12]): Active
COc1cccc2c(=O)n(-c3ccccn3)[se]c12	6.9	3.8	–
O=c1c2cccc(Cl)c2[se]n1-c1ccccc1	8.6	3.5	–
O=c1c2cccc(F)c2[se]n1-c1ccccc1	4.5	2.5	–
COc1ccc2[se]n(-c3ccccc3)c(=O)c2c1	0.5	0.8	–
Cc1cccc2c(=O)n(-c3ccccc3)[se]c12	4.6	2.5	–
COc1cccc2[se]n(-c3ccccc3)c(=O)c12	1.8	1.2	–
COc1cccc2c(=O)n(-c3ccncc3)[se]c12	7.4	3	–
O=c1c2cccc(Br)c2[se]n1-c1ccccc1	8.8	3.5	inhibition (Mus musculus [3]): Active; inhibition (Mus musculus [4]): Active; inhibition (Mus musculus [5]): Active
COc1ccc(-n2[se]c3ccccc3c2=O)cc1	1.3	1.1	–
O=c1c2ccc(Br)cc2[se]n1-c1ccccc1	0.7	0.6	–
COc1cccc2c(=O)n(-c3ccccc3)[se]c12	7.4	4.2	inhibition (Mus musculus [3]): Active; solubility [13]: 2.5 µg/mL (≈ 8.22 µM); inhibition (Mus musculus [4]): Active; inhibition (Mus musculus [5]): Active
O=c1c2cc(Br)ccc2[se]n1-c1ccccc1	0.5	1.1	–
COc1cccc2c(=O)n(-c3cccnc3)[se]c12	7.7	3.5	inhibition (Mus musculus [3]): Active; Activity (Mus musculus [6]): Active; inhibition (Mus musculus [14]): Active; Activity (Tu 686): inactive; Activity (Mus musculus [7]): Active; Activity (Mus musculus [8]): Active; solubility [13]: 1800 µg/mL (≈ 5900 µM); inhibition (Mus musculus [15]): Active; Activity (Mus musculus [9]): Active; inhibition (Mus musculus [16]): Active; Activity (HeLa): inactive; inhibition (Mus musculus [4]): Active; inhibition (Mus musculus [10]): Active; inhibition (Mus musculus [5]): Active; inhibition (Mus musculus [17]): Active; Activity (Mus musculus [11]): Active; Activity (Mus musculus [12]): Active; Activity (6-10B): inactive
O=c1c2cccc(Br)c2[se]n1-c1ccncc1	7.7	3.4	–

Reference: ChEMBL document CHEMBL5500355, “Quantum chemistry calculation-aided discovery of potent small-molecule mimics of glutathione peroxidases for the treatment of cisplatin-induced hearing loss” (Eur J Med Chem, 2024)
